Laboratory results reported in US20220323445A1, “REDUCING IMMUNOGENICITY TO PEGLOTICASE” (Horizon Therapeutics Ireland DAC, priority 2020, published 2022).

Test system: serum uric acid (sUA)
Test: Serum uric acid (sUA) levels and sUA responders, open-label study of pegloticase with MTX (NCT03635957)
Format: in vivo, human
Details: mITT
Procedure: The primary objective is to estimate the response rate during Month 6 (Weeks 20, 22, and 24), as measured by the sustained normalization of serum uric acid (SUA) to <6 mg/dL for at least 80% of the time during Month 6 in subjects receiving KXX with MTX.
The primary efficacy outcome endpoint is the sustained normalization of SUA to <6 mg/dL for at least 80% of the time during month 6 (weeks 20, 22, and 24) in subjects receiving KXX with MTX. This is slightly below the urate solubility threshold and this threshold has been the accepted standard for nearly all modern gout trials. Participants who achieve this endpoint were classified as “responders.” Serum uric acid (SUA) responders may also be defined as participants achieving and maintaining SUA <6 mg/dL for at least 80% of the time during Month 6 (Weeks 20, 22, and 24).
Blood samples may be collected prior to each pegloticase infusion for measurement of SUA levels using the Beckman Coulter AU System Uric Acid procedure. Participants were declared “non-responders” if there were SUA measures >6 mg/dL at 2 consecutive study visits beginning with the week 2 visit. […] If the SUA goal is not maintained before or at the 12-week mark, it was assumed that the participant had developed clinically relevant anti-pegloticase antibody and they received no further infusions. This assumption and subsequent discontinuation of pegloticase was consistent with the protocol of large phase III randomized controlled trials and the product label. A formal stopping rule was 2 occasions of SUA levels of greater than 6 mg/dL.
Clinical Chemistry—Blood samples were collected prior to each pegloticase infusion for measurement of SUA levels (primary efficacy parameter) using the Beckman Coulter AU System Uric Acid procedure. In this procedure uric acid is converted to hydrogen peroxide. Hydrogen peroxide reacts with reagent to produce a chromophore which is read bichromatically at 660/800 nm. The amount of dye formed is proportional to the uric acid concentration in the sample.
Serum samples for measurement of SUA levels were collected at the Screening Visit, the Week −4 Visit (prior to the first dose of MTX), and the Week −2 Visit during the MTX Run-in Period; within 48 hours prior to each pegloticase infusion and after the end of each pegloticase infusion prior to discharge from the site during the Pegloticase+IMM Period; at the non-infusion Week 52/End of Study/Early Termination Visits and at the Post Treatment 3 and 6 Month Follow-up Visits. Additional serum samples for SUA levels were collected at optional non-infusion (Frequent Sampling) Visits at Weeks 1 and 7. […] Subjects with SUA level >6 mg/dL at 2 consecutive visits beginning at Week 2 visit discontinued treatment, completed the End of Pegloticase Infusion Visit procedures within 2 weeks and continued the subject visits according to the protocol (without treatment).
Efficacy analyses were performed using the modified intention-to-treat (mITT) population, defined as all enrolled subjects who received ≥1 dose of pegloticase. The proportion of Month 6 responders was summarized, along with a 95% confidence interval for the proportion. The proportion of Month 3 and overall (Months 3 and 6 combined) responders was analyzed similarly.
A subject was declared a non-responder if the subject had SUA level >6 mg/dL at 2 consecutive study visits beginning with the Week 2 Visit. In addition, a subject who withdraws from study treatment for any reason after the first dose of pegloticase in the KXX+MTX Period and prior to Month 6 (for the primary endpoint) or Month 3 (for the secondary endpoint) was considered a non-responder if SUA values were not collected at the planned time points.
Patients were administered oral MTX (15 mg/week) and folate (1 mg/day) 4 weeks prior to the first pegloticase infusion (Day 1) and throughout the pegloticase treatment period. […]

[1] = Day 1 - Pre-Infusion (after MTX Run-in)

In the case of `CN(Cc1cnc2nc(N)nc(N)c2n1)c1ccc(C(=O)N[C@@H](CCC(=O)O)C(=O)O)cc1` [MTX, methotrexate], the “sUA Change from Methotrexate Baseline, Mean (SD)” value [1] is reported as 0.25 (1.283) mg/dL, the “sUA Change from Methotrexate Baseline, Median” value [1] is reported as -0.25 mg/dL and the “sUA Observed, Median” value [1] is reported as 9.00 mg/dL. The “sUA ≤ 6 mg/dL, n (%)” value [1] was 1 (7.1%) n (%), the “sUA Change from Methotrexate Baseline, Mean (SD)” value (Week -2 (MTX Run-in Period)) was 0.54 (0.839) mg/dL and the “sUA Change from Methotrexate Baseline, Median” value (Week -2 (MTX Run-in Period)) was 0.50 mg/dL. For the same molecule, the “sUA Observed, Median” value (Week -2 (MTX Run-in Period)) was 9.30 mg/dL and the “sUA ≤ 6 mg/dL, n (%)” value (Week -2 (MTX Run-in Period)) was 1 (7.1%) n (%).
